Data published in ChEMBL document CHEMBL5678795 (Eur J Pharmacol, 1999).
Active and inactive are the calls of the source. The rule behind the calls is not given here.

How the values were obtained:
Mus musculus = organism: Mus musculus; assay: Displacement of [125I]PDGF BB from mouse platlet-derived growth factor receptor at 10 uM incubated for 180 mins by radiometric based scintillation counter assay relative to control
[1] = biological target: Substance-K receptor (Homo sapiens) (UniProt P21452); assay: Displacement of [125I]NKA from human recombinant Neurokinin A receptor at 10 uM incubated for 60 mins by radiometric based scintillation counter assay relative to control
[2] = biological target: Neuromedin-K receptor (Homo sapiens) (UniProt P29371); assay: Displacement of [3H]SR 142801 from human recombinant NK3 tachykinin receptor at 10 uM incubated for 120 mins by radiometric based scintillation counter assay relative to control
[3] = biological target: Sodium-dependent dopamine transporter (Homo sapiens) (UniProt Q01959); assay: Displacement of [3H]BTCP from human recombinant dopamine receptor at 10 uM incubated for 120 mins by radiometric based scintillation counter assay relative to control
Sequence of Sodium-dependent dopamine transporter (Homo sapiens) (Q01959 whole entry): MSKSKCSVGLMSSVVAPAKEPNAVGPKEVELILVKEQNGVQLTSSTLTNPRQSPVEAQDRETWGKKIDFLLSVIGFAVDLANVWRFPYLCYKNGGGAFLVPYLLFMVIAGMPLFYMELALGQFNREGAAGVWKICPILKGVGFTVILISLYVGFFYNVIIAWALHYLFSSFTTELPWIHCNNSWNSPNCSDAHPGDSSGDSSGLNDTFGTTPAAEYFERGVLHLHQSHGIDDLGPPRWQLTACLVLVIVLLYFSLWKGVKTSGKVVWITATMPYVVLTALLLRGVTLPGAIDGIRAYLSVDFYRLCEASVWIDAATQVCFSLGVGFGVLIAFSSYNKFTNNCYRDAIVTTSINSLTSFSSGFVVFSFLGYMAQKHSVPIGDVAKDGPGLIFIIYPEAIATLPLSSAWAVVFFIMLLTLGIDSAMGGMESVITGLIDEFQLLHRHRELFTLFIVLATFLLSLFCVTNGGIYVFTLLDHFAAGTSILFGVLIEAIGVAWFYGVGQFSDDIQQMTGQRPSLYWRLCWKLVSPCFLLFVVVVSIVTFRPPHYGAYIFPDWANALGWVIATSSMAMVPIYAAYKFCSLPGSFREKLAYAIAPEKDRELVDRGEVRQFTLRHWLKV

[4] = biological target: D(1A) dopamine receptor (Homo sapiens) (UniProt P21728); assay: Displacement of [3H]SCH 23390 from human recombinant dopamine D1 receptor at 10 uM incubated for 60 mins by radiometric based scintillation counter assay relative to control
Sequence of D(1A) dopamine receptor (Homo sapiens) (P21728 whole entry): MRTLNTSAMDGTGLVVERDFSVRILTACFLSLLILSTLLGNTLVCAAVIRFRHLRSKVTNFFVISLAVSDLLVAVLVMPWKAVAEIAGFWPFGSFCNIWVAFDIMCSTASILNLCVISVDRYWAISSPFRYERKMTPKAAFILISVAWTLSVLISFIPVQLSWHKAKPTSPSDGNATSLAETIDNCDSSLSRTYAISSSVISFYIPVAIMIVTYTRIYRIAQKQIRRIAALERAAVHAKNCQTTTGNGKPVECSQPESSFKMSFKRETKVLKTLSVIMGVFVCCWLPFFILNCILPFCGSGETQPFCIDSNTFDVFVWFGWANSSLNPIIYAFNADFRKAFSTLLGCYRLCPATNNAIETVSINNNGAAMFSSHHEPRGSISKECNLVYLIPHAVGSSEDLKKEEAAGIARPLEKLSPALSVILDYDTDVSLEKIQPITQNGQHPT

[5] = biological target: Muscarinic acetylcholine receptor M3 (Homo sapiens) (UniProt P20309); assay: Displacement of [3H]4-DAMP from human recombinant muscarinic M3 receptor at 10 uM incubated for 60 mins by radiometric based scintillation counter assay relative to control
Sequence of Muscarinic acetylcholine receptor M3 (Homo sapiens) (P20309 whole entry, looked up): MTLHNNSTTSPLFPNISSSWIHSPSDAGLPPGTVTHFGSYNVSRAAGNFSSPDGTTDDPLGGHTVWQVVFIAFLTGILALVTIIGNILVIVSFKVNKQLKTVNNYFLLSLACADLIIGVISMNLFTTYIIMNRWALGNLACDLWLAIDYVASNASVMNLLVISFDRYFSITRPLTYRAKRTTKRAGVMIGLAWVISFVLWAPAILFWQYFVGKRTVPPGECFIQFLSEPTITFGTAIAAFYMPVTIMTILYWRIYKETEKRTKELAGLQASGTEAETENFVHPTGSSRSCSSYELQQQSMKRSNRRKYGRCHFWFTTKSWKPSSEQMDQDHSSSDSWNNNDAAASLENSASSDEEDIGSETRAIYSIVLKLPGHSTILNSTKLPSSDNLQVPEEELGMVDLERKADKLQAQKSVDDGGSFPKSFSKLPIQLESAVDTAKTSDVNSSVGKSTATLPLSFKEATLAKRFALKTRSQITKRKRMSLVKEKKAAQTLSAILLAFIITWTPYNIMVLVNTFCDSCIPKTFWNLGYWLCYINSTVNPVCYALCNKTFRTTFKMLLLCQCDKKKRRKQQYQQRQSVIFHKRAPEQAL

Homo sapiens [6] = organism: Homo sapiens; assay: Inhibition of Ca2+ dependent potassium channel (unknown origin) at 10 uM by radioligand binding assay relative to control
[7] = biological target: T1, Endothelin-1 receptor (Rattus norvegicus) (UniProt P26684); assay: Antagonist activity at ETA receptor in rat MMQ cells assessed as inhibition of phosphatidylinositol hydrolysis in presence of myo-[3H] inositol by anion exchange chromatography; format: functional, cell-based
T1 sequence (whole entry): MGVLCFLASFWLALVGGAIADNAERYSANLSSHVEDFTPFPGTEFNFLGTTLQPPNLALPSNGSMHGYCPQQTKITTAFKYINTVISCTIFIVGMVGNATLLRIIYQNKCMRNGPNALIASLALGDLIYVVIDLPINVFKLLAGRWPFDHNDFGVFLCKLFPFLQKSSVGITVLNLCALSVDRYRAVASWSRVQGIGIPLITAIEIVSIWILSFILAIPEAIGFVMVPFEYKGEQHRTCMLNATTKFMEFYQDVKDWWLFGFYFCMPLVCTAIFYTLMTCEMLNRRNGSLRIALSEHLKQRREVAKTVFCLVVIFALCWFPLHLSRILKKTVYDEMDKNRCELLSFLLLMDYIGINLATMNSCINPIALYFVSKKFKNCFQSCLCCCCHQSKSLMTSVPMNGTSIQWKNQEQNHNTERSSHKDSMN

[8] = Plasma clearance in Sprague-Dawley rat at 5 mg/kg, iv administered for 12 hrs by reverse phase HPLC-UV analysis; format: ADME, organism-based
[9] = biological target: D(1B) dopamine receptor (Homo sapiens) (UniProt P21918); assay: Displacement of [3H]SCH 23390 from human recombinant dopamine D5 receptor at 10 uM incubated for 60 mins by radiometric based scintillation counter assay relative to control
Sequence of D(1B) dopamine receptor (Homo sapiens) (P21918 whole entry): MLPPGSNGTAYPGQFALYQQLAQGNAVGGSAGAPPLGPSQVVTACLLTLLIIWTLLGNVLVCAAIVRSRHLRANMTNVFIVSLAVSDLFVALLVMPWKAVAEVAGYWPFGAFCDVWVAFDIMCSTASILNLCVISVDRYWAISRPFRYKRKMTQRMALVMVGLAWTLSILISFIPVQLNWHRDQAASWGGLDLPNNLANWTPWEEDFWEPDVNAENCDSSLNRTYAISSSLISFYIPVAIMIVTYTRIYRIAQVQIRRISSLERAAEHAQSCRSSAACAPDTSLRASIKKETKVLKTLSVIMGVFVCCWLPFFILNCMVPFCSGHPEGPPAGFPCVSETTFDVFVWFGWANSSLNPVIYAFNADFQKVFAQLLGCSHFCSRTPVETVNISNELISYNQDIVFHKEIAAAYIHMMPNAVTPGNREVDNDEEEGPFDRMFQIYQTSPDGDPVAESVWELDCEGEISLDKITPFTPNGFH

Rattus norvegicus = organism: Rattus norvegicus; assay: Displacement of [3H]GABA from rat brain GABA receptor at 10 uM incubated for 60 mins by radiometric based scintillation counter assay relative to control; format: tissue-based
[10] = biological target: Vasopressin V2 receptor (Homo sapiens) (UniProt P30518); assay: Displacement of [3H]AVP from human recombinant Vasopressin V2 receptor at 10 uM incubated for 120 mins by radiometric based scintillation counter assay relative to control
Homo sapiens [11] = organism: Homo sapiens; assay: Inhibition of human galanin receptor at 10 uM by radioligand binding assay relative to control
[12] = biological target: T1, Endothelin-1 receptor (Rattus norvegicus); assay: In vivo antagonist activity to ETA receptor in endothelin-1 induced Sprague-Dawley rat assessed as reduction of vasopressor response at 30 mg/kg, po administered for 4 to 8 hrs; format: functional, organism-based; conditions: time 4-8 hrs
[13] = biological target: T1, Endothelin-1 receptor (Rattus norvegicus); assay: In vivo antagonist activity to ETA receptor in endothelin-1 induced Sprague-Dawley rat assessed as reduction of vasopressor response at 30 mg/kg, po administered for 24 hrs; format: functional, organism-based
[14] = biological target: 5-hydroxytryptamine receptor 7 (Homo sapiens) (UniProt P34969); assay: Displacement of [3H]LSD from human recombinant 5-Hydroxytryptamine 7 at 10 uM incubated for 120 mins by radiometric based scintillation counter assay relative to control
Sequence of 5-hydroxytryptamine receptor 7 (Homo sapiens) (P34969 whole entry): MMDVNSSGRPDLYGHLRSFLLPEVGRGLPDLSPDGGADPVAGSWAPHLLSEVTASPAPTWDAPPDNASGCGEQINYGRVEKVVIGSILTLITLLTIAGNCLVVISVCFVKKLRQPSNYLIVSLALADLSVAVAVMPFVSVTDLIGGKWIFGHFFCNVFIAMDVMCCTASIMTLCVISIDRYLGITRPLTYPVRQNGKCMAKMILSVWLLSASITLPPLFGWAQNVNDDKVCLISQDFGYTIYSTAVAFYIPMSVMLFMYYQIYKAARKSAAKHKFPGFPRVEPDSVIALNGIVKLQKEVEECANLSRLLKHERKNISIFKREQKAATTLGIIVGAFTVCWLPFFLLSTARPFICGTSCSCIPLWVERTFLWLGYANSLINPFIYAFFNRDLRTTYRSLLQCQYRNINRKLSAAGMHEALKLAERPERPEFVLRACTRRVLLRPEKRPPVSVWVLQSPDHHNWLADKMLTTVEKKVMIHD

[15] = biological target: T1, Endothelin-1 receptor (Rattus norvegicus); assay: In vivo antagonist activity to ETA receptor in endothelin-1 induced Sprague-Dawley rat assessed as inhibition of transient depressor response at 100 mg/kg, po administered for 4 hrs; format: functional, organism-based
[16] = biological target: Bombesin receptor (Rattus norvegicus) (UniProt P52500+P24053+Q8K418); assay: Displacement of [125I][Tyr4]bombesin from rat brain Bombesin receptor at 10 uM incubated for 60 mins by radiometric based scintillation counter assay relative to control; format: tissue-based
Sequence of Bombesin receptor (Rattus norvegicus) (P24053 whole entry, looked up): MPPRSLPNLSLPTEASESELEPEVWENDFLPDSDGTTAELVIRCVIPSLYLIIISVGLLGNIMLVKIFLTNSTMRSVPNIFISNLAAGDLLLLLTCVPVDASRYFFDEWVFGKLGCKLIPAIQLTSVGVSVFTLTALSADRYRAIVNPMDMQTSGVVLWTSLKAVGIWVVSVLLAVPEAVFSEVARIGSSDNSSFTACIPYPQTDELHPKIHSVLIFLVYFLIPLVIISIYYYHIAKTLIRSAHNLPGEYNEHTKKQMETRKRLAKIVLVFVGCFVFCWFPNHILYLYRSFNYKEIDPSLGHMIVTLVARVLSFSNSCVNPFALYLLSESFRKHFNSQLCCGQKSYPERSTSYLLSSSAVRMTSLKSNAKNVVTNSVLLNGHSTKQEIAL
Sequence of Bombesin receptor (Rattus norvegicus) (P52500 whole entry, looked up): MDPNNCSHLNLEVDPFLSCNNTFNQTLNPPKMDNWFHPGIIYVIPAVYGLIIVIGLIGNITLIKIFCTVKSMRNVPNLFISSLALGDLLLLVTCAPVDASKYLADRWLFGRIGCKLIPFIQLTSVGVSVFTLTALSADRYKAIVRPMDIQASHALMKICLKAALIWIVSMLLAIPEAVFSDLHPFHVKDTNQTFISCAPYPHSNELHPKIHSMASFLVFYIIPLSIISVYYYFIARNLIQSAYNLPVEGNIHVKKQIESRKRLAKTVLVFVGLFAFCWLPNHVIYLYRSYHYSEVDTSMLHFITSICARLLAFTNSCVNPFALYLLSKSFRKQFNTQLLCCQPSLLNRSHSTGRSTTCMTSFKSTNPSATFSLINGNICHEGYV
Sequence of Bombesin receptor (Rattus norvegicus) (Q8K418 whole entry, looked up): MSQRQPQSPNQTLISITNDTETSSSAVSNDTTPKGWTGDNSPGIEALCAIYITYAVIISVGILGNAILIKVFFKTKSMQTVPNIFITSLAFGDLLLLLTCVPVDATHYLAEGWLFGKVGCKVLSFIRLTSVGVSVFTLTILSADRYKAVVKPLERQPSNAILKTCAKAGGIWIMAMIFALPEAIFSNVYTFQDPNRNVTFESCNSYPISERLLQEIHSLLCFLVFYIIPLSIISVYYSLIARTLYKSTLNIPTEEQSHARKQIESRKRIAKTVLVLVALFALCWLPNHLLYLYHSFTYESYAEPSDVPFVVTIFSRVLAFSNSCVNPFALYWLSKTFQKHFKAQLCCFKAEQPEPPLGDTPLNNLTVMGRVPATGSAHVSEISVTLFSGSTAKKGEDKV

[17] = biological target: Cannabinoid receptor 2 (Homo sapiens) (UniProt P34972); assay: Displacement of [3H]WIN 55212-2 from human recombinant cannabinoid CB2 receptor at 10 uM incubated for 120 mins by radiometric based scintillation counter assay relative to control
Sequence of Cannabinoid receptor 2 (Homo sapiens) (P34972 whole entry): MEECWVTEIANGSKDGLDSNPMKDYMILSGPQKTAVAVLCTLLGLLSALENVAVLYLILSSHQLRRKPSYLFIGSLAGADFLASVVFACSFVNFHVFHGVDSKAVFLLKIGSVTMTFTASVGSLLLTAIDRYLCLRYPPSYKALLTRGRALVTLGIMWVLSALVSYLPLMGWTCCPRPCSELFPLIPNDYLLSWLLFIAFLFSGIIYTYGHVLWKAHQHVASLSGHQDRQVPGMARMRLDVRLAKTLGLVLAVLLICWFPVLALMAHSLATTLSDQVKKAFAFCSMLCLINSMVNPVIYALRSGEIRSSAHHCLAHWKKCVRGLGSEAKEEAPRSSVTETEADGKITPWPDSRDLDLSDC

[18] = biological target: T2, Endothelin receptor type B (Homo sapiens, UniProt P24530); assay: Displacement of [125I]endhothelin-3 from human ETB receptor stably expressed in CHO cells Membrane assessed as inhibition constant at 25 degC incubated for 4 hrs by saturation binding assay; format: cell membranes
T2 sequence (P24530 whole entry): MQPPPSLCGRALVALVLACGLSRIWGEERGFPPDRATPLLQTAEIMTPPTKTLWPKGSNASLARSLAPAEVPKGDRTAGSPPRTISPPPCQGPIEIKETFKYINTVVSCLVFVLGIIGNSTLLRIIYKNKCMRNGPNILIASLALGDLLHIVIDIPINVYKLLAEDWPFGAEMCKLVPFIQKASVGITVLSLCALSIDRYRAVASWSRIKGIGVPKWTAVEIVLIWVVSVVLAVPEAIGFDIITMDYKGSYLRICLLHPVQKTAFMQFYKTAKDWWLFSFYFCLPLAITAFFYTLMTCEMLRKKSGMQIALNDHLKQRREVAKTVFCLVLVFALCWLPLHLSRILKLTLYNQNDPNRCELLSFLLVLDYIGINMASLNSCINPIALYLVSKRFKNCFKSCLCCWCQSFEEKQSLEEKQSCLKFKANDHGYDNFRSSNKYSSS

[19] = biological target: Muscarinic acetylcholine receptor M1 (Homo sapiens) (UniProt P11229); assay: Displacement of [3H]pirenzepine from human recombinant muscarinic M1 receptor at 10 uM incubated for 60 mins by radiometric based scintillation counter assay relative to control
Sequence of Muscarinic acetylcholine receptor M1 (Homo sapiens) (P11229 whole entry): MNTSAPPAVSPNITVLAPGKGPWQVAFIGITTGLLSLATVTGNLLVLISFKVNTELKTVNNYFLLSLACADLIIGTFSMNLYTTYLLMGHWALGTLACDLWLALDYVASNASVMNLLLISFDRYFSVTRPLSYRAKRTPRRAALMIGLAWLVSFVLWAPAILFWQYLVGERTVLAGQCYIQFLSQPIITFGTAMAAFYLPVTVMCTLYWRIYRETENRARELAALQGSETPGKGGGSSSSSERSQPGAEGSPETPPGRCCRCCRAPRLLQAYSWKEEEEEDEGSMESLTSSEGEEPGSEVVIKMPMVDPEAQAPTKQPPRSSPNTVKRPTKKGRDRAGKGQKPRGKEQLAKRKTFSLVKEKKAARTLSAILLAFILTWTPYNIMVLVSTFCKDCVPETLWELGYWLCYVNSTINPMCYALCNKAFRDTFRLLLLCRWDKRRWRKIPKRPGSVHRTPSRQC

[20] = biological target: Endothelin receptor type B (Oryctolagus cuniculus) (UniProt Q9N0W7); assay: Antagonist activity to ETB receptor in rabbit pulmonary artery assessed as induction of vessel ring contraction preincubated for 15 mins; format: functional, tissue-based
Endothelin-1 receptor = biological target: T3, Endothelin-1 receptor (Rattus norvegicus, UniProt P26684); assay: Displacement of [125I]endhothelin-1 from ETA receptor in rat MMQ cells Membrane at 25 degC incubated for 3 hrs by radioligand competition binding assay; format: cell membranes
T3 sequence (P26684 whole entry): T1 sequence (whole entry)

[21] = Cmax in cynomolgus monkey at 5 mg/kg, po administered for 12 hrs by HPLC analysis; format: ADME, organism-based, Macaca fascicularis; conditions: in vivo

## CCCCN(CCCC)C(=O)CN1[C@H](c2cc(OC)c3c(c2)OCO3)C[C@@H](C(=O)O)[C@@H]1CC(C)(C)CCC
Mus musculus
  inhibition: < 10%
[1]
  inhibition: < 10%
[2]
  inhibition: < 10%
[3]
  inhibition: < 10%
[4]
  inhibition: 14%
[5]
  inhibition: < 10%
Homo sapiens [6]
  inhibition: < 10%
[7]
  Activity: inactive
[8]
  clearance: 1.5 L/h/kg
[9]
  inhibition: < 10%
Rattus norvegicus
  inhibition: < 10%
[10]
  inhibition: < 10%
Homo sapiens [11]
  inhibition: < 10%
[12]
  Activity: Active
[13]
  Activity: inactive
[14]
  inhibition: < 10%
[15]
  Activity: Active
[16]
  inhibition: < 10%
[17]
  inhibition: 11%
[18]
  Ki: 13 µM
[19]
  inhibition: < 10%
[20]
  Activity: inactive
Endothelin-1 receptor
  IC50: 0.00056 µM
[21]
  Cmax: 1.1 µg/mL
